# Test results as given in patent publication US20240174647A1 (NEURON23, INC., priority 2022, published 2024).
# Biological target: wt human LRRK2, catalytic site (Homo sapiens (Human), UniProt Q5S007)
# Experiment: TR-FRET LanthaScreen Tb Kinase Activity Assay (LRRK2 kinase inhibition)
# Type: biochemical
# Settings: 2 nM wt human LRRK2, 400 nM fluorescein-ERM (LRRKtide) peptide, 38 μM ATP, 120 minutes at room temperature
# Experimental: The compounds in Table 1 were tested for their inhibitory effect on LRRK2 kinase according to the following procedures.
# The protocol for basic TR-FRET LanthaScreen Tb Kinase Activity Assay inhibitor studies were as follows. LanthaScreen Kinase Activity Assays (ThermoFisher/USA) to evaluate inhibitors were performed by addition of 100 nL of test compound in corresponding DMSO dilutions/5 μL of kinase/fluorescein-ERM(LRRKtide) peptide mixture, 5 μL of ATP into 384 well small volume plates. After incubation for 120 minutes at room temperature, the detection reagents containing Tb-anti-pLRRKtide antibody were added to monitor phosphrylation level of peptide. Then, after 60 min minutes incubation at room temperature plates were read in Envision. Data analysis of emission ratios was according to LanthaScreen Tb Kinase Activity Assay protocol.
# Kinase and assay components were adjusted to final concentrations according to the kit protocol. For LRRK2: 2 nM wt human LRRK2, catalytic site, catalytic site (ThermoFisher/USA), 400 nM peptide, 38 μM ATP in 1× Kinase Buffer A.
# Basic protocol for TR-FRET LanthaScreen Tb Kinase Activity Assay inhibitor studies involved two steps: • Enzymatic step: Addition of 100 nL of test compound in corresponding DMSO dilutions, 5 μL of kinase/substrate mixture, 5 μL of ATP into 384 well small volume plates. Incubation for 120 minutes at room temperature. • Detection step: Addition of 10 μL EDTA & antibody, read plate after 60 minutes. Data analysis of emission ratios according to KinEASE assay protocol.
# Kinase and assay components were adjusted to final concentrations according to the kit protocol.
# In the table below, activity is provided as follows: +++=IC50 less than 50 nM; ++=IC50 between 50 nM and 200 nM; +=IC50>=200 nM
# wt human LRRK2, catalytic site, sequence (Q5S007 1879-2138): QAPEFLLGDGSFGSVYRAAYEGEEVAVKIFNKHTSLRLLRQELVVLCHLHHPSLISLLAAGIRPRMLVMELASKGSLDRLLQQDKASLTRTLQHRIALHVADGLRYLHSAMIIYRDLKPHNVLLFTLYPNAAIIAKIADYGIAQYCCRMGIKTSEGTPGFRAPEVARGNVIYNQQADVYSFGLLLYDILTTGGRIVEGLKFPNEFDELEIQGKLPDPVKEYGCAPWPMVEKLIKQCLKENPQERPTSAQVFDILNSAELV
row,SMILES,IC50 [nM]
1,CNc1nc(Nc2cc3[nH]ncc3cc2C)ncc1C(F)(F)F [Example 2],< 50
2,"N#CCn1ncc2c(Nc3ncc(C(F)(F)F)c(NC4CCCC4)n3)cccc21 [Example 95, 2-(4-((4-(cyclopentylamino)-5-(trifluoromethyl)pyrimidin-2-yl)amino)-1H-indazol-1-yl)acetonitrile]",< 50
3,"C=Cc1cc2cn[nH]c2cc1Nc1ncc(C(F)(F)F)c(NC)n1 [Example 120, N^4-methyl-5-(trifluoromethyl)-N^2-(5-vinyl-1H-indazol-6-yl)pyrimidine-2,4-diamine]",50 to 200
4,"O=S(=O)(CCn1ncc2c(Nc3ncc(C(F)(F)F)c(NC4CC4)n3)cccc21)C1CC1 [Example 170, N^4-cyclopropyl-N^2-(1-(2-(cyclopropylsulfonyl)ethyl)-1H-indazol-4-yl)-5-(trifluoromethyl)pyrimidine-2,4-diamine]",< 50
5,"CNc1nc(Nc2cc3c(cnn3C)cc2C)ncc1C(F)(F)F [Example 13, N2-(1,5-dimethyl-1H-indazol-6-yl)-N4-methyl-5-(trifluoromethyl)pyrimidine-2,4-diamine]",< 50
6,"Cn1ncc2c(Nc3ncc(Cl)c(NC4CC4)n3)cccc21 [Example 71, 5-chloro-N4-cyclopropyl-N2-(1-methyl-1H-indazol-4-yl)pyrimidine-2,4-diamine]",< 50
7,"N#CCn1ncc2c(Nc3ncc(C(F)(F)F)c(NCC4CC4)n3)cccc21 [Example 104, 2-(4-((4-((cyclopropylmethyl)amino)-5-(trifluoromethyl)pyrimidin-2-yl)amino)-1H-indazol-1-yl)acetonitrile]",< 50
8,"CCNc1nc(Nc2cccc3c2cnn3CC(C)(C)O)nc2[nH]cc(Cl)c12 [Example 176, 1-[4-[[5-chloro-4-(ethylamino)-7H-pyrrolo[2,3-d]pyrimidin-2-yl]amino]indazol-1-yl]-2-methyl-propan-2-ol]",< 50
9,"CNc1nc(Nc2c(F)ccc3[nH]ncc23)ncc1C(F)(F)F [Example 22, N2-(5-fluoro-1H-indazol-4-yl)-N4-methyl-5-(trifluoromethyl)pyrimidine-2,4-diamine]",50 to 200
10,"CNc1nc(Nc2cccc3c2cnn3CC(C)(C)O)nc2[nH]cnc12 [Example 184, 2-methyl-1-[4-[[6-(methylamino)-9H-purin-2-yl]amino]indazol-1-yl]propan-2-ol]",< 50
11,"CNc1nc(Nc2cc(C#N)cc3[nH]ncc23)ncc1C(F)(F)F [Example 49, 4-((4-(methylamino)-5-(trifluoromethyl)pyrimidin-2-yl)amino)-1H-indazole-6-carbonitrile]",< 50
12,"CNc1nc(Nc2ccc(C3=CCN(C)CC3)c3c2cnn3CC#N)ncc1C(F)(F)F [Example 87, 2-(7-(1-methyl-1,2,3,6-tetrahydropyridin-4-yl)-4-((4-(methylamino)-5-(trifluoromethyl)pyrimidin-2-yl)amino)-11H-indazol-1-yl)acetonitrile]",< 50
13,"CCOc1nc(Nc2cccc3c2cnn3S(C)(=O)=O)nc2[nH]cc(Cl)c12 [Example 158, 5-chloro-4-ethoxy-N-(1-methylsulfonylindazol-4-yl)-7H-pyrrolo [2,3-d]pyrimidin-2-amine]",< 50
14,"CS(=O)(=O)n1ncc2c(Nc3ncc(C(F)(F)F)c(N[C@H]4CCOC4)n3)cccc21 [Example 149, (S)—N^2-(1-(Methylsulfonyl)-1H-indazol-4-yl)-N^4-(tetrahydrofuran-3-yl)-5-(trifluoromethyl)pyrimidine-2,4-diamine]",< 50
15,"CNc1nc(Nc2ccc(C3CCOCC3)c3c2cnn3CC#N)ncc1C(F)(F)F [Example 89, 2-(4-((4-(methylamino)-5-(trifluoromethyl)pyrimidin-2-yl)amino)-7-(tetrahydro-2H-pyran-4-yl)-1H-indazol-1-yl)acetonitrile]",< 50
16,"CCNc1nc(Nc2cccc3c2cnn3S(C)(=O)=O)nc2[nH]cc(Cl)c12 [Example 151, 5-chloro-N^4-ethyl-N^2-(1-methylsulfonylindazol-4-yl)-7H-pyrrolo[2,3-d]pyrimidine-2,4-diamine]",< 50
17,"CS(=O)(=O)CCn1ncc2c(Nc3ncc(C(F)(F)F)c(NCC4CC4)n3)cccc21 [Example 187, N^4-(cyclopropylmethyl)-N^2-(1-(2-(methylsulfonyl)ethyl)-1H-indazol-4-yl)-5-(trifluoromethyl)pyrimidine-2,4-diamine]",< 50
18,"CNc1nc(Nc2cccc3c2cnn3CCC(=O)N2CCOCC2)ncc1C(F)(F)F [Example 77, 3-(4-((4-(methylamino)-5-(trifluoromethyl)pyrimidin-2-yl)amino)-1H-indazol-1-yl)-1-morpholinopropan-1-one]",< 50

row,SMILES,IC50 [nM]
1,"CC(C)S(=O)(=O)n1ncc2c(Nc3ncc(C(F)(F)F)c(NC4CC4)n3)cccc21 [Example 135, N^4-cyclopropyl-N^2-(1-isopropylsulfonylindazol-4-yl)-5-(trifluoromethyl) pyrimidine-2,4-diamine]",< 50
2,"CS(=O)(=O)CCn1ncc2c(Nc3ncc(C(F)(F)F)c(N[C@H]4C[C@H]4F)n3)cccc21 [Example 198, N^4-((1S,2R)-2-fluorocyclopropyl)-N^2-(1-(2-(methylsulfonyl)ethyl)-1H-indazol-4-yl)-5-(trifluoromethyl)pyrimidine-2,4-diamine]",< 50
3,"CNc1nc(Nc2ccc3c4c2cnn4CCO3)ncc1C(F)(F)F [Example 178, N^4-methyl-N^2-(9-oxa-1,2-diazatricyclo[6.3.1.04,12]dodeca-2,4,6,8(12)-tetraen-5-yl)-5-(trifluoromethyl)pyrimidine-2,4-diamine]",< 50
4,"CNc1nc(Nc2c(F)ccc3c2cnn3C)ncc1C(F)(F)F [Example 38, N2-(5-fluoro-1-methyl-1H-indazol-4-yl)-N4-methyl-5-(trifluoromethyl) pyrimidine-2,4-diamine]",50 to 200
5,"CC1(Nc2nc(Nc3cccc4c3cnn4CCS(C)(=O)=O)ncc2C(F)(F)F)CC1 [Example 191, N^4-(1-methylcyclopropyl)-N^2-(1-(2-(methylsulfonyl)ethyl)-1H-indazol-4-yl)-5-(trifluoromethyl)pyrimidine-2,4-diamine]",< 50
6,"CCNc1nc(Nc2cccc3c2cnn3CC(F)F)nc2[nH]nc(C)c12 [Example 185, N^6-(1-(2,2-difluoroethyl)-1H-indazol-4-yl)-N^4-ethyl-3-methyl-1H-pyrazolo[3,4-d]pyrimidine-4,6-diamine]",< 50
7,"N#CCn1ncc2c(Nc3ncc(C(F)(F)F)c(NC4CC(F)(F)C4)n3)cccc21 [Example 96, 2-(4-((4-((3,3-difluorocyclobutyl)amino)-5-(trifluoromethyl)pyrimidin-2-yl)amino)-1H-indazol-1-yl)acetonitrile]",< 50
8,"FC(F)Cn1ncc2c(Nc3ncc(C(F)(F)F)c(NC4CC4)n3)cccc21 [Example 134, N^4-cyclopropyl-N2-[1-(2,2-difluoroethyl)indazol-4-yl]-5-(trifluoromethyl) pyrimidine-2,4-diamine]",< 50
9,CNc1nc(Nc2cc3[nH]ncc3cc2Cl)ncc1C(F)(F)F [Example 116],< 50
10,N#CCn1ncc2c(Nc3ncc(C(F)(F)F)c(NC4CC4)n3)cccc21 [Example 93],< 50
11,"CNc1nc(Nc2cc(C(C)C)cc3c2cnn3C)ncc1C(F)(F)F [Example 43, N2-(6-isopropyl-1-methyl-1H-indazol-4-yl)-N4-methyl-5-(trifluoromethyl) pyrimidine-2,4-diamine]",< 50
12,"Cn1ncc2c(Nc3ncc(C(F)(F)F)c(NC4CC4)n3)cccc21 [Example 68, N4-cyclopropyl-N2-(1-methyl-1H-indazol-4-yl)-5-(trifluoromethyl)pyrimidine-2,4-diamine]",< 50
13,"CNc1nc(Nc2ccc3nn(C)cc3c2)ncc1C(F)(F)F [Example 74, N4-methyl-N2-(2-methyl-2H-indazol-5-yl)-5-(trifluoromethyl)pyrimidine-2,4-diamine]",< 50
14,"CS(=O)(=O)CCn1ncc2c(Nc3ncc(C(F)(F)F)c(NC4CC4)n3)cccc21 [Example 139, N^4-cyclopropyl-N^2-(1-(2-(methylsulfonyl)ethyl)-1H-indazol-4-yl)-5-(trifluoromethyl)pyrimidine-2,4-diamine]",< 50
15,"CNc1nc(Nc2cnn3cc(C#N)ccc23)ncc1C(F)(F)F [Example 119, 3-((4-(methylamino)-5-(trifluoromethyl)pyrimidin-2-yl)amino)pyrazolo[1,5-a]pyridine-6-carbonitrile]",< 50
16,"CNc1nc(Nc2ccc(C3CCN(C)CC3)c3c2cnn3C)ncc1C(F)(F)F [Example 82, N4-methyl-N2-(1-methyl-7-(1-methylpiperidin-4-yl)-1H-indazol-4-yl)-5-(trifluoromethyl)pyrimidine-2,4-diamine]",< 50
17,"CNc1nc(Nc2c(C)ccc3nn(C)cc23)ncc1C(F)(F)F [Example 39, N2-(2,5-dimethyl-2H-indazol-4-yl)-N4-methyl-5-(trifluoromethyl)pyrimidine-2,4-diamine]",≥ 200
